The test system of assay [1] is male ddY mice. Put plainly: Evaluation 2 of eating behavior of mice (feed intake over 2 hours). It is filed as in vivo. As to conditions: 7 weeks old male ddY mice, single oral dose 1 mg/kg, 2 hours after feeding, FIG. 6, *: P<0.05 relative to the control. Here is the method: Mice (7 weeks old male ddY mice acclimated for at least 1 week before use after being purchased) were orally administered with a single dose of a saline solution of each peptide (1 mg/kg). Subsequently, a previously weighed feed (CE-2 (trade name) manufactured by CLEA Japan, Inc.) was given to the mice, and 2 hours after the feeding, the weight of the remaining feed was measured. A control test was also carried out in which the same procedure was carried out as shown above except that a single dose of saline was orally administered instead of each peptide. The amount of feed intake (g/2 hours) was defined as the difference between the weight of the feed given to the mice and the weight of the feed remaining 2 hours after the feeding. Based on the results, the amount of feed intake in the control group was normalized to 100, and the amount of feed intake in each group was calculated relative to 100. The results are shown in FIG. 6 (n=7 to 18, *: P<0.05 relative to the control).

The subject of assay [2] is Ghrelin-secreting cells (MGN3-1). Kind of assay: Ghrelin secretion activity evaluation (ghrelin in medium, ELISA). The assay is classed as cell-based. As to conditions: MGN3-1 cells; for ghrelin secretion (ghrelin concentration in medium): peptide concentration 0.01, 0.1, or 1 mM, FIG. 2, n=4; for significance of ghrelin secretion promoting effect: peptide concentration of 1 mM or more, FIG. 2. Here is the method: (§1) Ghrelin-secreting cells (MGN3-1) were seeded at 1×10^5 cells/well onto a 96-well plate and cultured in a sodium octanoate/DMEM medium at 37° C. for 24 hours. After the cultivation, the cells were washed with DPBS. A buffer solution of each peptide was prepared and, 100 μL of the buffer solution (with a peptide concentration of 1 mg/mL or 10 mg/mL) was added to the cells. The cells were further cultured at 37° C. for 4 hours. The buffer used contained 50 μM of sodium octanoate in DMEM.
Unless otherwise stated, all tests shown below were performed using, as a control, a culture obtained in the same manner as shown above except that only the buffer was added instead of the buffer solution of the peptide.
After the cultivation, the medium sample was collected and centrifuged to give a supernatant. Subsequently, 10 μL of 1 N HCl was added to the supernatant, and the resulting sample was stored at −80° C. until it was subjected to the ghrelin concentration measurement shown below.
The concentration of ghrelin in each medium sample was measured using an ELISA kit (Ghrelin (Acylated) EIA Kit A05117 (trade name) manufactured by Bertin Pharma SAS). The results shown in FIG. 1 are values relative to the measured value of the control.
The two peptides were evaluated for their effect on ghrelin secretion by the same method as shown above (Ghrelin Secretion Activity Evaluation 1).
On the technique in general: An ELISA detects its analyte on a solid surface through an enzyme-linked reagent.

Assay [3] has the same test system. Put plainly: Intracellular ghrelin level (Ghrelin Secretion Activity Evaluation 3). The assay is classed as cell-based. As to conditions: MGN3-1 cells, FIG. 3A, n=4 or 5. On the procedure:
as §1
The peptide of SEQ ID NO: 1 was evaluated for its effect on ghrelin secretion (intracellular ghrelin level) by the same method as shown above (Ghrelin Secretion Activity Evaluation 1).

Assay [4] deals with ghrelin synthesis-related genes (Preproghrelin, GOAT, and PC3). Put plainly: Evaluation of ghrelin synthesis-related gene expression (qPCR). It is filed as cell-based. As to conditions: MGN3-1 cells, FIGS. 3B, 3C, 3D, n=4 or 5. On the procedure: The expression levels of the three, ghrelin synthesis-related genes (Preproghrelin, GOAT, and PC3) in the cells obtained after the completion of the cultivation shown above (Ghrelin Secretion Activity Evaluation 1) were measured by the method shown below. First, mRNA was extracted from the cells using RNeasy Mini Kit (manufactured by QIA-GEN) and Takara PrimeScript RT Master Mix (manufactured by Takara Bio Inc.). Subsequently, the mRNA expression level was measured through the amplification of cDNA using LightCycler 96 System (manufactured by Roche Diagnostics K.K.) and THUNDERBIRD qPCR Mix (manufactured by Toyobo Co., Ltd.). The results are shown in FIG. 3B (Preproghrelin), FIG. 3C (GOAT), and FIG. 3D (PC3) (n=4 or 5).

Assay [5] relates to Ghrelin-secreting cells (MGN3-1). Put plainly: Evaluation of intracellular CAMP level. As to conditions: MGN3-1 cells, 0.5 mM IBMX, 37° C. 30 minutes, FIG. 4. The assay is classed as cell-based. On the procedure:
Ghrelin-secreting cells (MGN3-1) were […] in a Krebs-Ringer-HEPES buffer containing 0.5 mM IBMX. After the mixture was incubated at 37° C. for 30 minutes, the intracellular CAMP was quantified using HitHunter CAMP Assay for Small Molecules (manufactured by DiscoveRx).

Assay [6] shares this test system. Kind of assay: Evaluation of intracellular calcium ion level. It is filed as cell-based. As to conditions: data not shown. Here is the method: The intracellular calcium ion level was measured using Calcium Kit II-Fluo 4 (Dojindo Laboratories) and a multi-plate reader (manufactured by BMG LABTECH GmbH, Aex: 485 nm, Xem: 520 nm).
For assay [7], the system named is male ddY mice. Kind of assay: Evaluation 1 of eating behavior of mice (feed intake over 4 hours). It is filed as in vivo. As to conditions: 11 weeks old male ddY mice, single oral dose 1 mg/kg, 4 hours after feeding, vs saline control, FIG. 5A. Here is the method: Mice (11 weeks old male ddY mice) were orally administered with a single dose of a saline solution of the peptide of SEQ ID NO: 1 (1 mg/kg). Subsequently, a previously weighed feed (CE-2 (trade name) manufactured by CLEA Japan, Inc.) was given to the mice, and 4 hours after the feeding, the weight of the remaining feed was measured. A control test was also carried out in which the same procedure was carried out as shown above except that a single dose of saline was orally administered instead of the peptide of SEQ ID NO: 1. The amount of feed intake (g/4 hours) was defined as the difference between the weight of the feed given to the mice and the weight of the feed remaining 4 hours after the feeding.

Assay [8] has as its system male ddY mice. Kind of assay: Evaluation of mouse serum ghrelin level. It is filed as in vivo. As to conditions: 11 weeks old male ddY mice, 0.3 mg/kg, 1 hour after administration, FIG. 5B. Here is the method: Mice (11 weeks old male ddY mice) were administered with a saline solution of the peptide of SEQ ID NO: 1 (0.3 mg/kg). Subsequently, 1 hour after the administration, blood was collected from the orbital vein of the mice and centrifuged at 4° C. at 1,120×g for 10 minutes. The resulting supernatant was acidified with 1 N HCl and then measured for serum ghrelin level (pg/ml) using an acylated ghrelin enzyme immunoassay kit.

We go through six substances from patent US20240287132A1, “PEPTIDE, COMPOSITION, AND GHRELIN SECRETION PROMOTING AGENT” (KYOTO UNIVERSITY, priority 2019, published 2024).

As to HSPR [SEQ ID NO: 6], the “amount of feed intake relative to control (control normalized to 100)” value in the assay with male ddY mice [1] was “significantly increased”.
Still for that read-out and setting: then QAFE [SEQ ID NO: 3], with “significantly increased”.
Consider QAFEPIRSV [SEQ ID NO: 1], for which the extracellular ghrelin level result in assay [2] (data not shown) was “increased”. In assay [2], the “ghrelin secretion (ghrelin concentration in medium)” value is “ghrelin secretion promoting effect” and the “significance of ghrelin secretion promoting effect” value was “significant”. In addition, in assay [3], the intracellular ghrelin level entry is “tendency to reduce”. Besides, the “expression levels of the ghrelin synthesis-related genes (Preproghrelin, GOAT, PC3 mRNA)” value in assay [4] is given as “not found to change”. The “intracellular CAMP level” value in assay [5] was “no effect”. Also, the “intracellular calcium ion level” value in assay [6] was “no effect”. In addition, the “amount of feed intake” value with male ddY mice [7] was “increased”. Besides, in the assay with male ddY mice [8], the serum ghrelin level result is listed as “increased”. Further, the “amount of feed intake relative to control (control normalized to 100)” value with male ddY mice [1] is “increased”.
On to QGSF [SEQ ID NO: 7], for which, in the assay on male ddY mice [1], the “amount of feed intake relative to control (control normalized to 100)” value was “significantly increased”.
Take TNPW [SEQ ID NO: 5]: in the assay on male ddY mice [1], the “amount of feed intake relative to control (control normalized to 100)” value was “significantly increased”.
Consider “TNPWHSPROGSF (TNPWHSPRQGSF) [SEQ ID NO: 2]”, for which, in assay [2], the “ghrelin secretion (ghrelin concentration in medium)” value is on record as “ghrelin secretion promoting effect” and the “significance of ghrelin secretion promoting effect” value is given as “significant”. In the assay on male ddY mice [1], the “amount of feed intake relative to control (control normalized to 100)” value was “increased”.
